The structures appear in SMILES notation.

The values that follow come from publication PMC2948022 (Talanta, 2010).

The nature of one data set: Plasma concentrations of. To be noted: CRPS patient, (R,S)-Ket 40 mg/h continuous infusion, morning of Day 3; estimated using the standard curve for (2S,6S); (2R,6R)-hydroxynorketamine.
The nature of another data set: Urine concentrations of. To be noted: CRPS patient, (R,S)-Ket 40 mg/h continuous infusion, morning of Day 3. Format: in vivo, human.
For data set [1] the following is noted: cited from earlier work.
For data set [2] the following is noted: cited from earlier work. This is another data set of the same source.
The nature of the next data set: Relative. As to conditions: CRPS patient urine, Day 3, AGP-CSP. Format: in vivo, human.
The mark [3] stands for this setting: estimated using the standard curve for (2S,6S), (2R,6R)-hydroxynorketamine.
Setting [4] is: estimated using the standard curve for (2S,6S)-hydroxyketamine.

As for `N[C@]1(c2ccccc2Cl)CC[C@H](O)CC1=O` (single isomer, unassigned; peak 4c) [Peak 4c], the “Plasma” value in the data set “Plasma concentrations of” is 245 ng/mL. Besides, the “Urine” value in “Urine concentrations of” (setting [3]) was 940 ng/mL.

`N[C@@]1(c2ccccc2Cl)CCC[C@@H](O)C1=O` (single isomer, unassigned; peak 4a) [Peak 4a]: in data set [1], the anesthetic activity entry was “no anesthetic activity”. Further, the “concentration in the CNS” value in data set [2] is reported as “reaches significant concentration in the CNS”.

On to `N[C@]1(c2ccccc2Cl)CC[C@@H](O)CC1=O` (single isomer, unassigned) [Peak 4f], for which the “Plasma” value in “Plasma concentrations of” is 141 ng/mL. The “Urine (ng/ml)” value in the data set “Urine concentrations of” (setting [3]) is listed as 4,099 ng/ml.

As for `NC1(c2ccccc2Cl)CCCC(O)C1=O` (single isomer, unassigned; peak 4b) [Peak 4b], the “Plasma” value in “Plasma concentrations of” was 881 ng/mL. Also, the “Urine” value in the data set “Urine concentrations of” (setting [3]) is 572 ng/mL.

On to `CN[C@]1(c2ccccc2Cl)CC[C@H](O)CC1=O` (single isomer, unassigned; peak 5c) [Peak 5c], for which, in the data set “Urine concentrations of” (setting [4]), the “Urine” value was 4 ng/mL.

For the compound `CN[C@@]1(c2ccccc2Cl)CC[C@H](O)CC1=O` (single isomer, unassigned; peak 5d) [Peak 5d], in the data set “Urine concentrations of” (setting [4]), the “Urine” value was 5 ng/mL.

For `CNC1(c2ccccc2Cl)CCCCC1=O` (single isomer, unassigned; peak 1) [Peak 1, (R.S)-Ketamine], in “Relative”, the “relative enantiomeric urine concentration (R)-/(S)-” value was 1.0.

In the case of `NC1(c2ccccc2Cl)CC(O)CCC1=O` (single isomer, unassigned) [Peak 4e], the “Plasma” value in the data set “Plasma concentrations of” was 160 ng/mL. The “Urine” value in “Urine concentrations of” (setting [3]) was 515 ng/mL.

Consider `N[C@]1(c2ccccc2Cl)C[C@@H](O)CCC1=O` (single isomer, unassigned; peak 4d) [Peak 4d], for which the “Plasma” value in “Plasma concentrations of” was 145 ng/mL. Moreover, the “Urine” value in the data set “Urine concentrations of” (setting [3]) was 475 ng/mL.
